This passage reports Ki results from patent publication US10189836B2, “Therapeutic compounds, compositions and methods of use thereof” (Genentech, Inc., priority 2015, dated 2019).

Assay [1] deals with isolated recombinant JAK1 kinase domain (Homo sapiens (Human), UniProt P23458). Put plainly: JAK1 enzyme assay (Caliper LabChip, Ki). The assay is classed as biochemical. Particulars: isolated recombinant JAK1 kinase domain, 1.5 nM enzyme, ATP 25 μM.
Assay [2] addresses isolated recombinant JAK2 kinase domain (Homo sapiens (Human), UniProt O60674). Nature of the assay: JAK2 enzyme assay (Caliper LabChip, Ki). Particulars: isolated recombinant JAK2 kinase domain, 0.2 nM enzyme, ATP 25 μM. The format is biochemical.

Chain of isolated recombinant JAK1 kinase domain (P23458 875-1153): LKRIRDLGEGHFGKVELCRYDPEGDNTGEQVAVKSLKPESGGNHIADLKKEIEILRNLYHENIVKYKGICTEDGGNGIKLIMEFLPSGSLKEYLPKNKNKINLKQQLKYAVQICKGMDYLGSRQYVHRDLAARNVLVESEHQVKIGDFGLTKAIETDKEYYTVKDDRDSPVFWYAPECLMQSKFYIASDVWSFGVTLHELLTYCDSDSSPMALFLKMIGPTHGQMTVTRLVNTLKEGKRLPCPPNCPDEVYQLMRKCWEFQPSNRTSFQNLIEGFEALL
Chain of isolated recombinant JAK2 kinase domain (O60674 849-1124): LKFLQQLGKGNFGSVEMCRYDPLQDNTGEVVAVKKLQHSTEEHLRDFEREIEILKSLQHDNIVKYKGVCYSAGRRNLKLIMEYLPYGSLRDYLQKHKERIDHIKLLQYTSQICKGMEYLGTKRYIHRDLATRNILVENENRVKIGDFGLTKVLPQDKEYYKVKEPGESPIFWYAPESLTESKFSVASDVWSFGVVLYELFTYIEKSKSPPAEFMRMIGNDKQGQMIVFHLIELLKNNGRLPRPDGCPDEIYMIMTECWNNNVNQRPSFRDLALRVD

By Ki is commonly meant a dissociation constant, usually derived from enzyme kinetics or from competition with a known ligand. Consider `CN1CCN(C(=O)Cn2cc(Nc3nc4c(N5CC6CCC(C5)N6C(=O)C5CC6CCC5O6)cccn4n3)cn2)CC1` (stereo not drawn) [Example 53, 1-(4-methylpiperazin-1-yl)-2-[4-[[8-[8-(7-oxabicyclo[2.2.1]heptane-3-carbonyl)-3,8-diazabicyclo[3.2.1]octan-3-yl]-[1,2,4]triazolo[1,5-a]pyridin-2-yl]amino]pyrazol-1-yl]ethanone], for which the values for the inhibition constant Ki in assay [1] and in assay [2] were 1.9 nM and 2.8 nM, respectively.

Turning to `CN1CCN(C(=O)Cn2cc(Nc3nc4c(N5CC6CCC(C5)N6C(=O)COC(F)(F)F)cccn4n3)cn2)CC1` [Example 54, 1-(4-methylpiperazin-1-yl)-2-[4-[[8-[8-[2-(trifluoromethoxy)acetyl]-3,8-diazabicyclo[3.2.1]octan-3-yl]-[1,2,4]triazolo[1,5-a]pyridin-2-yl]amino]pyrazol-1-yl]ethanone], the Ki was found to be 1.6 nM in assay [1] and 4.9 nM in assay [2].

`CN1CCN(C(=O)Cn2cc(Nc3nc4c(N5CC6CCC(C5)N6Cc5cccc(C#N)c5)cccn4n3)cn2)CC1` [Example 55, 3-[[3-[2-[[1-[2-(4-methylpiperazin-1-yl)-2-oxo-ethyl]pyrazol-4-yl]amino]-[1,2,4]triazolo[1,5-a]pyridin-8-yl]-3,8-diazabicyclo[3.2.1]octan-8-yl]methyl]benzonitrile]: the values for the Ki in assay [1] and in assay [2] were 1.9 nM and 4 nM, respectively.

Take `CN1CCN(C(=O)Cn2cc(Nc3nc4c(N5CC6CCC(C5)N6Cc5ccc(C#N)cc5)cccn4n3)cn2)CC1` [Example 56, 4-[[3-[2-[[1-[2-(4-methylpiperazin-1-yl)-2-oxo-ethyl]pyrazol-4-yl]amino]-[1,2,4]triazolo[1,5-a]pyridin-8-yl]-3,8-diazabicyclo[3.2.1]octan-8-yl]methyl]benzonitrile]: the results for the inhibitory constant (Ki) in assay [1] and in assay [2] were 1.4 nM and 5.1 nM, respectively.

Turning to `CN1CCN(C(=O)Cn2cc(Nc3nc4c(N5CC6CCC(C5)N6C(=O)C5CCC(F)(F)C5)cccn4n3)cn2)CC1` (stereo not drawn) [Example 58, 2-[4-[[8-[8-(3,3-difluorocyclopentanecarbonyl)-3,8-diazabicyclo[3.2.1]octan-3-yl]-[1,2,4]triazolo[1,5-a]pyridin-2-yl]amino]pyrazol-1-yl]-1-(4-methylpiperazin-1-yl)ethanone], the Ki amounted to 1.6 nM in assay [1] and 2.5 nM in assay [2].

Take `CCN1CCN(C(=O)Cn2cc(Nc3nc4c(N5CC6CCC(C5)N6C(=O)N5CC(C(F)(F)F)C5)cccn4n3)cn2)CC1` [Example 59, 1-(4-ethylpiperazin-1-yl)-2-[4-[[8-[8-[3-(trifluoromethyl)azetidine-1-carbonyl]-3,8-diazabicyclo[3.2.1]octan-3-yl]-[1,2,4]triazolo[1,5-a]pyridin-2-yl]amino]pyrazol-1-yl]ethanone]: the inhibition constant (Ki) in assay [1] stood at 0.8 nM; in assay [2], 0.5 nM.

Take `CN1CCN(C(=O)Cn2cc(Nc3nc4c(N5CC6CCC(C5)N6S(=O)(=O)CCC(F)(F)F)cccn4n3)cn2)CC1` [Example 60, 1-(4-methylpiperazin-1-yl)-2-[4-[[8-[8-(3,3,3-trifluoropropylsulfonyl)-3,8-diazabicyclo[3.2.1]octan-3-yl]-[1,2,4]triazolo[1,5-a]pyridin-2-yl]amino]pyrazol-1-yl]ethanone]: the Ki was 0.7 nM in assay [1] and 1.5 nM in assay [2].

For `CN1CCN(C(=O)Cn2cc(Nc3nc4c(N5CC6CCC(C5)N6S(=O)(=O)c5ccccc5)cccn4n3)cn2)CC1` [Example 61, 2-[4-[[8-[8-(benzenesulfonyl)-3,8-diazabicyclo[3.2.1]octan-3-yl]-[1,2,4]triazolo[1,5-a]pyridin-2-yl]amino]pyrazol-1-yl]-1-(4-methylpiperazin-1-yl)ethanone], the inhibition constant (Ki) in assay [1] turned out to be 0.6 nM; in assay [2], 1 nM.

For `CN(C1CCN(C(=O)Cn2cc(Nc3nc4c(N5CC6CCC(C5)N6C(=O)N5CC(C(F)(F)F)C5)cccn4n3)cn2)CC1)C1COC1` [Example 62, 1-[4-[methyl(oxetan-3-yl)amino]piperidin-1-yl]-2-(4-[[8-(8-[[3-(trifluoromethyl)azetidin-1-yl]carbonyl]-3,8-diazabicyclo[3.2.1]octan-3-yl)-[1,2,4]triazolo[1,5-a]pyridin-2-yl]amino]-1H-pyrazol-1-yl)ethan-1-one], the inhibitory constant (Ki) in assay [1] came out at 0.7 nM; in assay [2] it was 0.5 nM.

As for `CN1CCN(C(=O)Cn2cc(Nc3nc4c(N5CC6CCC(C5)N6Cc5ccccc5C#N)cccn4n3)cn2)CC1` [Example 63, 2-[[3-[2-[[1-[2-(4-methylpiperazin-1-yl)-2-oxo-ethyl]pyrazol-4-yl]amino]-[1,2,4]triazolo[1,5-a]pyridin-8-yl]-3,8-diazabicyclo[3.2.1]octan-8-yl]methyl]benzonitrile], the inhibitory constant (Ki) in assay [1] came to 1.8 nM; in assay [2], 2.4 nM.

For `CN1CCN(C(=O)Cn2cc(Nc3nc4c(N5CC6CCC(C5)N6C(=O)Cc5ccccc5F)cccn4n3)cn2)CC1` [Example 64, 2-(2-fluorophenyl)-1-[3-[2-[[1-[2-(4-methylpiperazin-1-yl)-2-oxo-ethyl]pyrazol-4-yl]amino]-[1,2,4]triazolo[1,5-a]pyridin-8-yl]-3,8-diazabicyclo[3.2.1]octan-8-yl]ethanone], the Ki turned out to be 1.9 nM in assay [1] and 7.2 nM in assay [2].

`CN1CCN(C(=O)Cn2cc(Nc3nc4c(N5CC6CCCC(C5)N6C(=O)[C@H]5C[C@@H](C(F)(F)F)C5)cccn4n3)cn2)CC1` [Example 65, 1-(4-methylpiperazin-1-yl)-2-[4-[[8-[9-[3-(trifluoromethyl)cyclobutanecarbonyl]-3,9-diazabicyclo[3.3.1]nonan-3-yl]-[1,2,4]triazolo[1,5-a]pyridin-2-yl]amino]pyrazol-1-yl]ethanone]: the inhibition constant (Ki) was 0.6 nM in assay [1] and 0.8 nM in assay [2].

With `CN1CCN(C(=O)Cn2cc(Nc3nc4c(N5CC6CCC(C5)N6C(=O)Cc5ccc(F)cc5)cccn4n3)cn2)CC1` [Example 66, 2-(4-fluorophenyl)-1-[3-[2-[[1-[2-(4-methylpiperazin-1-yl)-2-oxo-ethyl]pyrazol-4-yl]amino]-[1,2,4]triazolo[1,5-a]pyridin-8-yl]-3,8-diazabicyclo[3.2.1]octan-8-yl]ethanone], the inhibitory constant (Ki) in assay [1] is 0.7 nM; in assay [2], 1.4 nM.

For `CC(CC(=O)N1C2CCC1CN(c1cccn3nc(Nc4cnn(CC(=O)N5CCN(C)CC5)c4)nc13)C2)C(F)(F)F` (stereo not drawn) [Example 67, 4,4,4-trifluoro-3-methyl-1-[3-[2-[[1-[2-(4-methylpiperazin-1-yl)-2-oxo-ethyl]pyrazol-4-yl]amino]-[1,2,4]triazolo[1,5-a]pyridin-8-yl]-3,8-diazabicyclo[3.2.1]octan-8-yl]butan-1-one], the inhibitory constant (Ki) amounted to 0.8 nM in assay [1] and 1.4 nM in assay [2].

As to `CN1CCN(C(=O)Cn2cc(Nc3nc4c(N5CC6CCC(C5)N6C(=O)c5cccc(CC#N)c5)cccn4n3)cn2)CC1` [Example 69, 2-[3-[3-[2-[[1-[2-(4-methylpiperazin-1-yl)-2-oxo-ethyl]pyrazol-4-yl]amino]-[1,2,4]triazolo[1,5-a]pyridin-8-yl]-3,8-diazabicyclo[3.2.1]octane-8-carbonyl]phenyl] acetonitrile], the Ki is 2.3 nM in assay [1] and 9.3 nM in assay [2].
